# Measured values taken from ChEMBL document CHEMBL2439971, “Design, synthesis and antiproliferative evaluation of fluorenone analogs with DNA topoisomerase I inhibitory properties” (Bioorg Med Chem, 2013).
# pIC50: −log10 of the molar value. Calls of active or inactive are those of the source. The calls are words filed in the database; no cut-off is given here.
# Legend:
# MOLT-4 = assay: Cytotoxicity against human MOLT4 cells at 10 uM after 48 hrs by sulforhodamine B assay relative to control; format: functional
# SK-MEL-2 = assay: Cytotoxicity against human SK-MEL-2 cells at 10 uM after 48 hrs by sulforhodamine B assay relative to control; format: functional
# HCT-15 = assay: Cytotoxicity against human HCT15 cells at 10 uM after 48 hrs by sulforhodamine B assay relative to control; format: functional
# COLO 205 = assay: Cytotoxicity against human COLO205 cells at 10 uM after 48 hrs by sulforhodamine B assay relative to control; format: functional
# CCRF-CEM = assay: Cytotoxicity against human CCRF-CEM cells at 10 uM after 48 hrs by sulforhodamine B assay relative to control; format: functional
# MDA-MB-231 = assay: Cytotoxicity against human MDA-MB-231 cells at 10 uM after 48 hrs by sulforhodamine B assay relative to control; format: functional
# HL-60(TB) = assay: Cytotoxicity against human HL-60(TB) cells at 10 uM after 48 hrs by sulforhodamine B assay relative to control; format: functional
# NCI-H226 = assay: Cytotoxicity against human NCI-H226 cells at 10 uM after 48 hrs by sulforhodamine B assay relative to control; format: functional
# [1] = Cytotoxicity against human Hs 578T cells at 10 uM after 48 hrs by sulforhodamine B assay relative to control; format: functional
# NCI-H23 = assay: Cytotoxicity against human NCI-H23 cells at 10 uM after 48 hrs by sulforhodamine B assay relative to control; format: functional
# SF-268 = assay: Cytotoxicity against human SF268 cells at 10 uM after 48 hrs by sulforhodamine B assay relative to control; format: functional
# NCI-H522 = assay: Cytotoxicity against human NCI-H522 cells at 10 uM after 48 hrs by sulforhodamine B assay relative to control; format: functional
# [2] = Cytotoxicity against human EKVX cells at 10 uM after 48 hrs by sulforhodamine B assay relative to control; format: functional
# OVCAR-8 = assay: Cytotoxicity against human OVCAR8 cells at 10 uM after 48 hrs by sulforhodamine B assay relative to control; format: functional
# DU-145 = assay: Cytotoxicity against human DU145 cells at 10 uM after 48 hrs by sulforhodamine B assay relative to control; format: functional
# U-251 = assay: Cytotoxicity against human U251 cells at 10 uM after 48 hrs by sulforhodamine B assay relative to control; format: functional
# A549 = assay: Cytotoxicity against human A549 cells at 10 uM after 48 hrs by sulforhodamine B assay relative to control; format: functional
# SR = assay: Cytotoxicity against human SR cells at 10 uM after 48 hrs by sulforhodamine B assay relative to control; format: functional
# SF-295 = assay: Cytotoxicity against human SF295 cells at 10 uM after 48 hrs by sulforhodamine B assay relative to control; format: functional
# Malme-3M = assay: Cytotoxicity against human MALME-3M cells at 10 uM after 48 hrs by sulforhodamine B assay relative to control; format: functional
# UO-31 = assay: Cytotoxicity against human UO31 cells at 10 uM after 48 hrs by sulforhodamine B assay relative to control; format: functional
# NCI/ADR-RES = assay: Cytotoxicity against human NCI/ADR-RES cells at 10 uM after 48 hrs by sulforhodamine B assay relative to control; format: functional
# NCI-H322M = assay: Cytotoxicity against human NCI-H322M cells at 10 uM after 48 hrs by sulforhodamine B assay relative to control; format: functional
# SK-MEL-28 = assay: Cytotoxicity against human SK-MEL-28 cells at 10 uM after 48 hrs by sulforhodamine B assay relative to control; format: functional
# ACHN = assay: Cytotoxicity against human ACHN cells at 10 uM after 48 hrs by sulforhodamine B assay relative to control; format: functional
# IGROV-1 = assay: Cytotoxicity against human IGROV1 cells at 10 uM after 48 hrs by sulforhodamine B assay relative to control; format: functional
# SF-539 = assay: Cytotoxicity against human SF539 cells at 10 uM after 48 hrs by sulforhodamine B assay relative to control; format: functional
# LOX IMVI = assay: Cytotoxicity against human LOXIMVI cells at 10 uM after 48 hrs by sulforhodamine B assay relative to control; format: functional
# HCC 2998 = assay: Cytotoxicity against human HCC2998 cells at 10 uM after 48 hrs by sulforhodamine B assay relative to control; format: functional
# T47D = assay: Cytotoxicity against human T47D cells at 10 uM after 48 hrs by sulforhodamine B assay relative to control; format: functional
# HOP-62 = assay: Cytotoxicity against human HOP62 cells at 10 uM after 48 hrs by sulforhodamine B assay relative to control; format: functional
# BT-549 = assay: Cytotoxicity against human BT549 cells at 10 uM after 48 hrs by sulforhodamine B assay relative to control; format: functional
# M14 = assay: Cytotoxicity against human M14 cells at 10 uM after 48 hrs by sulforhodamine B assay relative to control; format: functional
# SNB-19 = assay: Cytotoxicity against human SNB19 cells at 10 uM after 48 hrs by sulforhodamine B assay relative to control; format: functional
# HT-29 = assay: Cytotoxicity against human HT-29 cells at 10 uM after 48 hrs by sulforhodamine B assay relative to control; format: functional
# MCF7 = assay: Cytotoxicity against human MCF7 cells at 10 uM after 48 hrs by sulforhodamine B assay relative to control; format: functional
# UACC-62 = assay: Cytotoxicity against human UACC62 cells at 10 uM after 48 hrs by sulforhodamine B assay relative to control; format: functional
# OVCAR-4 = assay: Cytotoxicity against human OVCAR4 cells at 10 uM after 48 hrs by sulforhodamine B assay relative to control; format: functional
# 786-0 = assay: Cytotoxicity against human 786-0 cells at 10 uM after 48 hrs by sulforhodamine B assay relative to control; format: functional
# OVCAR-5 = assay: Cytotoxicity against human OVCAR5 cells at 10 uM after 48 hrs by sulforhodamine B assay relative to control; format: functional
# K562 = assay: Cytotoxicity against human K562 cells at 10 uM after 48 hrs by sulforhodamine B assay relative to control; format: functional
# SN12C = assay: Cytotoxicity against human SN12C cells at 10 uM after 48 hrs by sulforhodamine B assay relative to control; format: functional
# SK-MEL-5 = assay: Cytotoxicity against human SK-MEL-5 cells at 10 uM after 48 hrs by sulforhodamine B assay relative to control; format: functional
# CAKI-1 = assay: Cytotoxicity against human CAKI-1 cells at 10 uM after 48 hrs by sulforhodamine B assay relative to control; format: functional
# OVCAR-3 = assay: Cytotoxicity against human OVCAR3 cells at 10 uM after 48 hrs by sulforhodamine B assay relative to control; format: functional
# PC-3 [3] = assay: Cytotoxicity against human PC3 cells after 48 hrs by sulforhodamine B assay; format: functional, cell-based; settings: PC-3, 48 h
# TK-10 = assay: Cytotoxicity against human TK10 cells at 10 uM after 48 hrs by sulforhodamine B assay relative to control; format: functional
# SNB-75 = assay: Cytotoxicity against human SNB75 cells at 10 uM after 48 hrs by sulforhodamine B assay relative to control; format: functional
# MDA-MB-468 = assay: Cytotoxicity against human MDA-MB-468 cells at 10 uM after 48 hrs by sulforhodamine B assay relative to control; format: functional
# Homo sapiens = organism: Homo sapiens; assay: Inhibition of telomerase (unknown origin) at 10 uM TRAP assay
# RPMI-8226 = assay: Cytotoxicity against human RPMI8226 cells at 10 uM after 48 hrs by sulforhodamine B assay relative to control; format: functional
# SW-620 = assay: Cytotoxicity against human SW620 cells at 10 uM after 48 hrs by sulforhodamine B assay relative to control; format: functional
# KM12 = assay: Cytotoxicity against human KM12 cells at 10 uM after 48 hrs by sulforhodamine B assay relative to control; format: functional
# HCT-116 = assay: Cytotoxicity against human HCT116 cells at 10 uM after 48 hrs by sulforhodamine B assay relative to control; format: functional
# UACC-257 = assay: Cytotoxicity against human UACC257 cells at 10 uM after 48 hrs by sulforhodamine B assay relative to control; format: functional
# NCI-H460 = assay: Cytotoxicity against human NCI-H460 cells at 10 uM after 48 hrs by sulforhodamine B assay relative to control; format: functional
# RXF 393 = assay: Cytotoxicity against human RXF393 cells at 10 uM after 48 hrs by sulforhodamine B assay relative to control; format: functional
# MDA-MB-435 = assay: Cytotoxicity against human MDA-MB-435 cells at 10 uM after 48 hrs by sulforhodamine B assay relative to control; format: functional
# PC-3 [4] = assay: Cytotoxicity against human PC3 cells at 10 uM after 48 hrs by sulforhodamine B assay relative to control; format: functional
smiles,measurement,setting,value
CCCNCC(=O)Nc1ccc2c(c1)C(=O)c1cc(NC(=O)CNCCC)ccc1-2,Activity,MOLT-4,41.29%
same,Activity,SK-MEL-2,114.94%
same,Activity,HCT-15,82.71%
same,Activity,COLO 205,53.11%
same,Activity,CCRF-CEM,43.54%
same,Activity,MDA-MB-231,53.48%
same,Activity,HL-60(TB),78.59%
same,Activity,NCI-H226,104.17%
same,Activity,[1],109.04%
same,Activity,NCI-H23,81.96%
same,Activity,SF-268,81.33%
same,Activity,NCI-H522,63.92%
same,Activity,[2],88.56%
same,Activity,OVCAR-8,54.46%
same,Activity,DU-145,68.94%
same,Activity,U-251,49.16%
same,Activity,A549,44.21%
same,Activity,SR,26.93%
same,Activity,SF-295,78.31%
same,Activity,Malme-3M,111.89%
same,Activity,UO-31,59.44%
same,Activity,NCI/ADR-RES,90.61%
same,Activity,NCI-H322M,55.32%
same,Activity,SK-MEL-28,91.46%
same,Activity,ACHN,72.93%
same,Activity,IGROV-1,67.45%
same,Activity,SF-539,86.19%
same,Activity,LOX IMVI,63.5%
same,Activity,HCC 2998,75.34%
same,Activity,T47D,100.55%
same,Activity,HOP-62,70.78%
same,Activity,BT-549,97.53%
same,Activity,M14,84.8%
same,Activity,SNB-19,96.69%
same,Activity,HT-29,7.11%
same,Activity,MCF7,42.23%
same,Activity,UACC-62,108.2%
same,Activity,OVCAR-4,65.9%
same,Activity,786-0,82.05%
same,Activity,OVCAR-5,115.75%
same,Activity,K562,1.15%
same,Activity,SN12C,79.58%
same,Activity,SK-MEL-5,93.78%
same,Activity,CAKI-1,84.88%
same,Activity,OVCAR-3,101.73%
same,pIC50,PC-3 [3],5.26
same,Activity,TK-10,101.22%
same,Activity,SNB-75,90.2%
same,Activity,MDA-MB-468,60.47%
same,inhibition,Homo sapiens,inactive
same,Activity,RPMI-8226,62.56%
same,Activity,SW-620,33.33%
same,Activity,KM12,65.12%
same,Activity,HCT-116,34.22%
same,Activity,UACC-257,113.51%
same,Activity,NCI-H460,47.28%
same,Activity,RXF 393,64.2%
same,Activity,MDA-MB-435,74.91%
same,Activity,PC-3 [4],63.47%
O=C(CN1CCCC1)Nc1ccc2c(c1)C(=O)c1cc(NC(=O)CN3CCCC3)ccc1-2,Activity,MOLT-4,61.26%
same,Activity,SK-MEL-2,106.76%
same,Activity,HCT-15,99.02%
same,Activity,COLO 205,89.07%
same,Activity,CCRF-CEM,68.3%
same,Activity,MDA-MB-231,73.88%
same,Activity,HL-60(TB),84.5%
same,Activity,NCI-H226,104.39%
same,Activity,[1],100.68%
same,Activity,NCI-H23,93.89%
same,Activity,SF-268,107.06%
same,Activity,NCI-H522,72.46%
same,Activity,[2],100.27%
same,Activity,OVCAR-8,69.01%
same,Activity,DU-145,83.47%
same,Activity,U-251,81.2%
same,Activity,A549,76.89%
same,Activity,SR,74.15%
same,Activity,SF-295,86.51%
same,Activity,Malme-3M,130.28%
same,Activity,UO-31,69.71%
same,Activity,NCI/ADR-RES,93.68%
same,Activity,NCI-H322M,73.45%
same,Activity,SK-MEL-28,103.08%
same,Activity,ACHN,102.77%
same,Activity,IGROV-1,86.73%
same,Activity,SF-539,99.41%
same,Activity,LOX IMVI,90.25%
same,Activity,HCC 2998,90.44%
same,Activity,T47D,105.79%
same,Activity,HOP-62,88.02%
same,Activity,BT-549,101.36%
same,Activity,M14,103.87%
same,Activity,SNB-19,96.18%
same,Activity,HT-29,19.04%
same,Activity,MCF7,62.7%
same,Activity,UACC-62,103.81%
same,Activity,OVCAR-4,71.07%
same,Activity,786-0,90.88%
same,Activity,OVCAR-5,128.57%
same,Activity,K562,68.94%
same,Activity,SN12C,87.69%
same,Activity,SK-MEL-5,102.03%
same,Activity,CAKI-1,91.43%
same,Activity,OVCAR-3,113.24%
same,pIC50,PC-3 [3],5.11
same,Activity,TK-10,91.73%
same,Activity,SNB-75,88.15%
same,Activity,MDA-MB-468,99.42%
same,inhibition,Homo sapiens,inactive
same,Activity,RPMI-8226,78.34%
same,Activity,SW-620,68.12%
same,Activity,KM12,85.82%
same,Activity,HCT-116,79.74%
same,Activity,UACC-257,106.11%
same,Activity,NCI-H460,88.56%
same,Activity,RXF 393,88.07%
same,Activity,MDA-MB-435,84.99%
same,Activity,PC-3 [4],85.69%
